Here are results for 20 molecules from ChEMBL document CHEMBL3853357, “Discovery of a Series of 5,11-Dihydro-6H-benzo[e]pyrimido[5,4-b][1,4]diazepin-6-ones as Selective PI3K-δ/γ Inhibitors” (ACS Med Chem Lett, 2016).

For orientation: IC50 means the concentration that gives 50% inhibition. High values mean lower potency, low ones higher potency.

Activity calls are given as the source filed them. No cut-off for these calls is given here. Where only a bound is given, the exact number is not on record here.

The target in test [1] is T1, Phosphatidylinositol 4,5-bisphosphate 3-kinase catalytic subunit delta isoform (Homo sapiens, UniProt O00329).
T1 sequence (O00329 whole entry): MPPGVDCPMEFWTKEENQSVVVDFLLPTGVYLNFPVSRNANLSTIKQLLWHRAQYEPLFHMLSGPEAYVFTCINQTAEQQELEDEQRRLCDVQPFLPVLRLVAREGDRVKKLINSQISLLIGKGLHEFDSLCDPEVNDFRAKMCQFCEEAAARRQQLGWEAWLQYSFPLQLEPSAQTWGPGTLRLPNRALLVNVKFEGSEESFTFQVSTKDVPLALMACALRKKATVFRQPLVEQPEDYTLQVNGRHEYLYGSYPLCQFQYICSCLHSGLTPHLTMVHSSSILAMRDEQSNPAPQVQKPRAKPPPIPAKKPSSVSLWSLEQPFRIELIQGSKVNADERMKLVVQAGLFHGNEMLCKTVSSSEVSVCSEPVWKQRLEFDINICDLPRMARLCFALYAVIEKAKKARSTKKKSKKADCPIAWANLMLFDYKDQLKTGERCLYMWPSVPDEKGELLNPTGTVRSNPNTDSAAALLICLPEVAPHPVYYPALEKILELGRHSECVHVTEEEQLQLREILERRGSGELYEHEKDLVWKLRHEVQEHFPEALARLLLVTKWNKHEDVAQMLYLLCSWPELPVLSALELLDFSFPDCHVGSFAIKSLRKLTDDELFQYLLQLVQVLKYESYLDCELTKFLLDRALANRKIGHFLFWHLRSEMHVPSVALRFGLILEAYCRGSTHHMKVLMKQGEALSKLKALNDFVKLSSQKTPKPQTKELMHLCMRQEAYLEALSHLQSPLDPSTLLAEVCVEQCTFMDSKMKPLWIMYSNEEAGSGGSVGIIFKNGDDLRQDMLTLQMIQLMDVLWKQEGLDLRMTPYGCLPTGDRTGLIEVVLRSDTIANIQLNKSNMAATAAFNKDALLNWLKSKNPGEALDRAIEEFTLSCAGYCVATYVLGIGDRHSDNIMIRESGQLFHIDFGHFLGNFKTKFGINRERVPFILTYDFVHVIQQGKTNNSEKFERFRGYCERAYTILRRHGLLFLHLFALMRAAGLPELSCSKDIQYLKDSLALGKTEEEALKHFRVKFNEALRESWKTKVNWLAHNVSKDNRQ
In words: Inhibition of human PI3Kdelta (R108 to Q1044 residues) expressed in mammalian expression system incubated for 60 mins by ADAPTA assay.

In test [2] the target is Phosphatidylinositol 4,5-bisphosphate 3-kinase catalytic subunit gamma isoform (Homo sapiens, UniProt P48736). In words: Inhibition of human PI3Kgamma (S144 to A1102 residues) expressed in mammalian expression system incubated for 60 mins by ADAPTA assay.
Test [3] in a line: (§1) Antiproliferative activity against patient-derived IgM-stimulated CLL cells after 3 days by CellTiter-Glo assay. Type of test: functional, cell-based. The settings on record: Homo sapiens, 72 h. For orientation: ATP-based viability assays read luminescence as a measure of living cells.
Another test deals with T2, Aurora kinase A (Homo sapiens, UniProt O14965).
T2 sequence (O14965 whole entry): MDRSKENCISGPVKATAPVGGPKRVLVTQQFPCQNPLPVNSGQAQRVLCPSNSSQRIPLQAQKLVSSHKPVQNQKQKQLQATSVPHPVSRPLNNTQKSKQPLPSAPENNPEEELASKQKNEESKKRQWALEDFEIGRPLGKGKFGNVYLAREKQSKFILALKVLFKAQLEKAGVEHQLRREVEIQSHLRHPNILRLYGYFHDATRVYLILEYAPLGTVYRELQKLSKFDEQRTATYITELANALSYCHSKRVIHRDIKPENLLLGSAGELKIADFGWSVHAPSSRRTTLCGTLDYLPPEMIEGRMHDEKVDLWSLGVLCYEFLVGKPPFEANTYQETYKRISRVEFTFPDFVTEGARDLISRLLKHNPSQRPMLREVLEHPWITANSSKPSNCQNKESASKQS
In words: Inhibition of human Aurora kinase A (E122 to K401 residues) expressed in mammalian expression system by Z'LYTE assay.

In a further test the target is Aurora kinase B (Homo sapiens, UniProt Q96GD4). Kind of test: Inhibition of human Aurora kinase B (D25 to A303 residues) expressed in mammalian expression system by Z'LYTE assay.
Test [4] in a line: Antiproliferative activity against human Jurkat cells after 3 days by CellTiter-Glo assay. Type of test: functional, cell-based. The settings on record: 72 h.
Test [5] is described as follows: Antiproliferative activity against human MOLT4 cells after 3 days by CellTiter-Glo assay. The conditions noted are these: MOLT-4, 72 h. Type of test: functional, cell-based.
The nature of test [6]: Antiproliferative activity against human MV4-11 cells after 3 days by CellTiter-Glo assay. Type of test: functional, cell-based. The conditions noted are these: MV4-11, 72 h.
A short description of test [7]: Antiproliferative activity against human MOLM14 cells after 3 days by CellTiter-Glo assay. Type of test: functional, cell-based. The settings on record: MOLM-14, 72 h.
Test [8] can be described thus: Antiproliferative activity against human Loucy cells after 3 days by CellTiter-Glo assay. The settings on record: 72 h. Type of test: functional, cell-based.
In another test the test system is CLL. Described as §1. Type of test: functional, cell-based. The settings on record: Homo sapiens.
Test [9] has as its target Phosphatidylinositol 4,5-bisphosphate 3-kinase catalytic subunit beta isoform (Homo sapiens) (UniProt P42338). In words: Inhibition of p110beta in HMEC assessed as reduction in Akt phosphorylation at Ser-473 residue at 0.01 to 1 uM after 1 hr by Western blot analysis. For orientation: Immunoblotting shows a protein as a band on a membrane.
Test [10] shares this target. Kind of test: Inhibition of p110beta in HMEC assessed as reduction in Akt phosphorylation at Thr-308 residue at 0.01 to 1 uM after 1 hr by Western blot analysis.
The target is the same in test [11]. In words: Inhibition of p110beta in HMEC assessed as reduction in S6RP phosphorylation at Ser-235/236 residue at 0.01 to 1 uM after 1 hr by Western blot analysis.
For test [12], the target named is T3, Phosphatidylinositol 5-phosphate 4-kinase type-2 gamma (Homo sapiens) (UniProt Q8TBX8).
T3 sequence (whole entry): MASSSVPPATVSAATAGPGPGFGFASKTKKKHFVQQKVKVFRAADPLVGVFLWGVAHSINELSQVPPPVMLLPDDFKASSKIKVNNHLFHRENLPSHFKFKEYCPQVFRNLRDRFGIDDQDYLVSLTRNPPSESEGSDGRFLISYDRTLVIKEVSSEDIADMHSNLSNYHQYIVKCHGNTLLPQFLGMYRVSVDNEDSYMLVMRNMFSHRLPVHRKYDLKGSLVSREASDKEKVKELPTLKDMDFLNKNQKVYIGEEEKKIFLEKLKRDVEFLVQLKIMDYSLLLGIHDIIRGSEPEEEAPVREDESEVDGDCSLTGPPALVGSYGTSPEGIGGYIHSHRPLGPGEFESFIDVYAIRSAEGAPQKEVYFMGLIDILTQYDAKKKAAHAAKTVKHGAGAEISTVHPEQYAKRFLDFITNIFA
Kind of test: Inhibition of human PIP5K2C (M1 to A421 residues) expressed at 1 uM.

Chain of Phosphatidylinositol 4,5-bisphosphate 3-kinase catalytic subunit gamma isoform (P48736 whole entry, the tested form may be a part, canonical isoform): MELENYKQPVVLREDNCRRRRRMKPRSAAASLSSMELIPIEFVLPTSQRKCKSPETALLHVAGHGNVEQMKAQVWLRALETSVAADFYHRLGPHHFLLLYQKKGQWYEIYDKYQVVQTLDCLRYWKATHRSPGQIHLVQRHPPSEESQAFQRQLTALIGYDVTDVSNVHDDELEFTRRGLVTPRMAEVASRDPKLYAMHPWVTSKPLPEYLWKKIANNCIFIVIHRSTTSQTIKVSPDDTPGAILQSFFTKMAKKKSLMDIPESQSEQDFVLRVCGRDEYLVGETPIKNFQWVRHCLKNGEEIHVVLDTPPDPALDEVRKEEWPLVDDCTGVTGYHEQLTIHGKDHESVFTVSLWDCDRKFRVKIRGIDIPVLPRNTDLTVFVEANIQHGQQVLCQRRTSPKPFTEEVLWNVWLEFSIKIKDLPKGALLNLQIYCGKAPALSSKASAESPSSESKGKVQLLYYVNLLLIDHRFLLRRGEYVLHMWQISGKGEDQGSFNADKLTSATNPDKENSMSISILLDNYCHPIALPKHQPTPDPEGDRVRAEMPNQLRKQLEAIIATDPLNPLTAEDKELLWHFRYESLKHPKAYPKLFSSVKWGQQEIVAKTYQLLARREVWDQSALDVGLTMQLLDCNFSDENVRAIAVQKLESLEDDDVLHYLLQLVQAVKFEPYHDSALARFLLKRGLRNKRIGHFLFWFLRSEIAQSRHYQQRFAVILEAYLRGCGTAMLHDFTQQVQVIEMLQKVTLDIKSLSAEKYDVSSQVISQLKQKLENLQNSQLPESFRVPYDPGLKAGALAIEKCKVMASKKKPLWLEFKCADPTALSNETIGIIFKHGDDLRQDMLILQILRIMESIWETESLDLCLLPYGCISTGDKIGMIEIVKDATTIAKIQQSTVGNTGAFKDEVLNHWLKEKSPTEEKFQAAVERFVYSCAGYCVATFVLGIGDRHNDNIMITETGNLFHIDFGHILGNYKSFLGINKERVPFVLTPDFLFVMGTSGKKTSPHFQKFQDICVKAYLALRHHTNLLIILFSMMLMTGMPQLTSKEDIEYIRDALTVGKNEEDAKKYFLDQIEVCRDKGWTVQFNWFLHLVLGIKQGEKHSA
Chain of Aurora kinase B (Q96GD4 whole entry, the tested form may be a part): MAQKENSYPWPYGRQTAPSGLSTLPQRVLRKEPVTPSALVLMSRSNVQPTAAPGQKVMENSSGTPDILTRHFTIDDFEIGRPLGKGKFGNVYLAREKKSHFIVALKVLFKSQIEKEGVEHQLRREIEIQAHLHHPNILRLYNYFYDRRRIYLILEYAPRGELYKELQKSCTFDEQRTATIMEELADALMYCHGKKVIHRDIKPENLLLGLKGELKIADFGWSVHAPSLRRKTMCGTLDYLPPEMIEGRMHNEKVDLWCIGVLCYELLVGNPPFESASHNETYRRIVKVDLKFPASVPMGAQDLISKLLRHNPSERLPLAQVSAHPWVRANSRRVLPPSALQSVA
Chain of Phosphatidylinositol 4,5-bisphosphate 3-kinase catalytic subunit beta isoform (Homo sapiens) (P42338 whole entry, looked up, canonical isoform): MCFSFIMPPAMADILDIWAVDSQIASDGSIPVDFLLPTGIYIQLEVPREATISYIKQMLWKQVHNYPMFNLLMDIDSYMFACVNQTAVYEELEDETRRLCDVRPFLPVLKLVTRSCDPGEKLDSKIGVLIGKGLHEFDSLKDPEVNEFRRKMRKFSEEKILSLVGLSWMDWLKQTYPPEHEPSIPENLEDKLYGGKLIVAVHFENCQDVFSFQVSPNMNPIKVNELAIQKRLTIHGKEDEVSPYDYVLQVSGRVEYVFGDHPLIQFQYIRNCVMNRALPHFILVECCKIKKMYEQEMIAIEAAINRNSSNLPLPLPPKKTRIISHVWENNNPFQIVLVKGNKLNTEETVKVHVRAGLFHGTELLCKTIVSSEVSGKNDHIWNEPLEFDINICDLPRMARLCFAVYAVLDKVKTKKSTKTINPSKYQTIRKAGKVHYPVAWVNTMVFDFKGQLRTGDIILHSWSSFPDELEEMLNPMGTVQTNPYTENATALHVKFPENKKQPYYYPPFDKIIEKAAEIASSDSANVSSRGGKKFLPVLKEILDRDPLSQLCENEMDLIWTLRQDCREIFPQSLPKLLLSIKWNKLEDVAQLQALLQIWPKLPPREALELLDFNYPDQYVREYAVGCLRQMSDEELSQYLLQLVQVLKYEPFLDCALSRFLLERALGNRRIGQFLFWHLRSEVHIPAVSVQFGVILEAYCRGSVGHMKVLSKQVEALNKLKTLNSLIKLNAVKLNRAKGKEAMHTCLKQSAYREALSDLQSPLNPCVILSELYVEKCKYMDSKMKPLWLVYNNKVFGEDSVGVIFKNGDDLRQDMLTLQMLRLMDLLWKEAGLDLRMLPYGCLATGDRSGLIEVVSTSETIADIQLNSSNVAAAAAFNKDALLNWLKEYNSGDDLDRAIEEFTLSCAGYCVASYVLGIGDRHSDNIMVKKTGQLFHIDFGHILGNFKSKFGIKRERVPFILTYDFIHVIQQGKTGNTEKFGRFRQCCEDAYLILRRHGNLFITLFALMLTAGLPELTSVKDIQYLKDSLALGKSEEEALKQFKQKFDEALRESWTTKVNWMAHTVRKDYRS

Take `C=CC(=O)Nc1ccc(NS(=O)(=O)c2cccc(Nc3ncc4c(n3)N(C)c3ccc(C)cc3C(=O)N4C)c2)cc1`: the IC50 in [1] was found to be 29 nM; in test [2], 15 nM.

The molecule `CC[C@H](Nc1ncnc2[nH]cnc12)c1nc2cccc(F)c2c(=O)n1-c1ccccc1` [IDELALISIB] showed an IC50 in [3] of more than 10000 nM.

As to `CN1C(=O)c2ccccc2N(C)c2nc(Nc3ccc(S(N)(=O)=O)cc3)ncc21`, the IC50 was 49 nM in test [1], 15 nM in test [2], 4.8 nM against Aurora kinase A and 13 nM against Aurora kinase B.

As for `C=CC(=O)Nc1cccc(NS(=O)(=O)c2cccc(Nc3ncc4c(n3)N(C)c3ccc(C)cc3C(=O)N4C)c2)c1`, the figures for the IC50 in [1] and in test [2] were 39 nM and 330 nM, respectively.

Turning to `CCC(=O)N1CCN(S(=O)(=O)c2cccc(Nc3ncc4c(n3)N(C)c3ccc(C)cc3C(=O)N4C)c2)CC1`, the IC50 was 1.7 nM in test [1]; 11 nM in [2]; 1600 nM in test [4]; 1200 nM in test [5]; 960 nM in test [6]; 610 nM in test [7]. Besides, the IC50 in test [8] was 720 nM; in test [3] it was 3000 nM. In the test with CLL, the Activity result is “Dose-dependent effect”.

Take `Cc1ccc2c(c1)C(=O)N(C)c1cnc(Nc3ccc(S(=O)(=O)N4CCC(O)CC4)cc3)nc1N2C`: the IC50 in test [1] was found to be 41 nM; in test [2], 58 nM.

Turning to `C=CC(=O)Nc1ccc(NS(=O)(=O)c2ccc(Nc3ncc4c(n3)N(C)c3ccc(C)cc3C(=O)N4C)cc2)cc1`, the IC50 in test [1] was 96 nM; in test [2], 310 nM.

In the case of `Cc1ccc2c(c1)C(=O)N(C)c1cnc(Nc3ccc(S(N)(=O)=O)cc3)nc1N2C`, the IC50 in [1] was determined as 30 nM; in test [2] it was 20 nM; against Aurora kinase A, 16 nM; at Aurora kinase B, 4.2 nM.

With `C[C@H](Nc1ncnc2nc[nH]c12)c1cc2cccc(Cl)c2c(=O)n1-c1ccccc1` [DUVELISIB], the inhibition result in [9], in [10] and in test [11] was “Active” each time. In addition, the IC50 in test [4] was 1900 nM; in test [5] it was 2300 nM; in [6], 4400 nM; in [7], 1200 nM; in test [8] it was 980 nM; in test [3] it was more than 10000 nM.

As for `C=CC(=O)NC1CCN(S(=O)(=O)c2ccc(Nc3ncc4c(n3)N(C)c3ccc(C)cc3C(=O)N4C)cc2)CC1`, the IC50 is 120 nM in [1] and 49 nM in test [2].

Consider `C=CC(=O)N1CCN(S(=O)(=O)c2cccc(Nc3ncc4c(n3)N(C)c3ccc(C)cc3C(=O)N4C)c2)CC1`, for which the IC50 in test [1] came out at 1.5 nM; in test [2], 2.8 nM; in [4] it was 166 nM; in test [5], 33 nM. Moreover, the inhibition result in test [12] was “Active”.

Consider `Cc1cc(S(N)(=O)=O)ccc1Nc1ncc2c(n1)N(C)c1ccccc1C(=O)N2C`, for which the IC50 turned out to be 820 nM in [1], 2400 nM in test [2], 4900 nM against Aurora kinase A and 9400 nM at Aurora kinase B.

As for `CN1C(=O)c2ccccc2N(C)c2nc(Nc3cccc(S(N)(=O)=O)c3)ncc21`, the IC50 came to 4.1 nM in test [1], 4.3 nM in test [2], 2.1 nM against Aurora kinase A and 4.6 nM at Aurora kinase B.

Turning to `Cc1ccc2c(c1)C(=O)N(C)c1cnc(Nc3ccc(S(=O)(=O)N4CCN(C)CC4)cc3)nc1N2C`, the IC50 in [1] is 2600 nM; in [2], 3300 nM.

Regarding `C=CC(=O)NC1CCN(S(=O)(=O)c2cccc(Nc3ncc4c(n3)N(C)c3ccc(C)cc3C(=O)N4C)c2)CC1`, the IC50 in test [1] stood at 20 nM; in test [2], 120 nM; on Aurora kinase A, 350 nM.

For the molecule `C=CC(=O)Nc1cccc(NS(=O)(=O)c2ccc(Nc3ncc4c(n3)N(C)c3ccc(C)cc3C(=O)N4C)cc2)c1`, the IC50 in test [1] was 440 nM; in test [2], 340 nM.

As to `C=CC(=O)N1CCN(S(=O)(=O)c2ccc(Nc3ncc4c(n3)N(C)c3ccc(C)cc3C(=O)N4C)cc2)CC1`, the IC50 was determined as 230 nM in test [1] and 110 nM in test [2].

Regarding `Cc1ccc2c(c1)C(=O)N(C)c1cnc(Nc3cccc(S(=O)(=O)N4CCC(O)CC4)c3)nc1N2C`, the IC50 is 2.1 nM in test [1]; 6.5 nM in test [2]; 1400 nM in [4]; 1300 nM in test [5]; 620 nM in test [6]; 1000 nM in [7]. For the same molecule, the IC50 in test [8] was 350 nM; in test [3], more than 10000 nM.

Consider `Cc1ccc2c(c1)C(=O)N(C)c1cnc(Nc3cccc(S(=O)(=O)N4CCN(C)CC4)c3)nc1N2C`, for which the 50% inhibitory concentration (IC50) was 51 nM in test [1] and 560 nM in [2].

On to `Cc1ccc2c(c1)C(=O)N(C)c1cnc(Nc3cccc(S(N)(=O)=O)c3)nc1N2C`, for which the IC50 in test [1] stood at 76 nM; in test [2] it was 110 nM.
